Nine compounds from patent US10905125B2, “Biocidal compositions and method of treating water using thereof” (BWA WATER ADDITIVES UK LIMITED, priority 2014, dated 2021) can be followed below.

For one experiment, the system named is Desulfovibrio vulgaris. The experiment is described as follows: Log10 reduction of viable anaerobe cells in saline phosphate buffer suspension (serial dilution into API RP 38 media vials). Type of experiment: cell-based. The conditions noted are these: for Log10 Reduction Anaerobes: pH 7.5 phosphate buffer, room temperature; for efficacy against the anaerobe Desulfovibrio vulgaris (in words): agent alone. On the procedure:
(§1) A suspension of Desulfovibrio vulgaris plus Enterobacter aerogenes bacteria containing from 1××10^6 to 1×10^8 cells/mL was prepared in sterile pH 7.5 phosphate buffer containing varying levels of sodium chloride to give the desired total dissolved solids (TDS) concentration. Aliquots of this suspension were dosed with the indicated concentrations of a phosphonium compound and a hypohalite compound with the concentrations being measured as ppm by weight of the stated compounds added to the dosed suspension. The mixtures were allowed to stand at room temperature. At the designated contact times, each mixture was sampled to determine the total number of viable cells of both Desulfovibrio vulgaris and Enterobacter aerogenes by serial 10-fold dilution into API RP 38 media vials and anaerobic acid producing media vials, respectively. The vials were incubated at 37° C. for 72 hours. Results were recorded as cells per millilitre.
(§2) Aqueous media inoculated with anaerobe and facultative anaerobe culture and having a TDS of 10,000 mg l^−1; 20,000 mg l^−1; or 30,000 mg l^−1 was treated with treatment agents comprising: (i) sodium hypochlorite; (ii) tri n-butyl n-tetradecyl phosphonium chloride (TTPC) or (iii) a combination of sodium hypochlorite and TTPC.
(§3) TTPC was used in the form of Bellacide 355, an aqueous composition of TTPC and water consisting of water and […] of TTPC available from BWA Water Additives.
(§4) Sodium hypochlorite was used in the form of Clorox, an aqueous composition of sodium hypochlorite and water consisting of water and 6% by weight sodium hypochlorite available from The Clorox Company.
(§5) The efficacy of the treatment agents was evaluated by measuring the Log 10 Reduction of the anaerobe Desulfovibrio vulgaris and the facultative anaerobe Enterobacter aerogenes [after contact times of 10 and 30 minutes as detailed in Table 1. For TTPC and sodium hypochlorite the stated ppm values relate to the amount added. The addition of 35 ppm sodium hypochlorite to the aqueous system provided 2 ppm of free sodium hypochlorite in the treated aqueous system.

For another experiment, the system named is Enterobacter aerogenes. The experiment is described as follows: Log10 reduction of viable facultative anaerobe cells in saline phosphate buffer suspension (serial dilution into anaerobic acid producing media vials). Type of experiment: cell-based. The conditions noted are these: for Log10 Reduction Facultative Anaerobes: pH 7.5 phosphate buffer, room temperature; for efficacy against the facultative anaerobe Enterobacter aerogenes (in words): agent alone. The method, then: as §1, §2, §3, §4, §5

Setting [1] is: TDS 20,000 mg l-1, contact time 30 minutes, listed as 3 (comparative).
[2] abbreviates: TDS 20,000 mg l-1, contact time 30 minutes, listed as 4 (comparative).
[3] abbreviates: TDS 30,000 mg l-1, contact time 30 minutes.
The mark [4] stands for this setting: TDS 30,000 mg l-1, contact time 10 minutes.
[5] abbreviates: TDS 30,000 mg l-1, contact times of 10 and 30 minutes.

SMILES strings stand for the structures.

Consider `CCCCCCCCCCCCCC[P+](CCCC)(CCCC)CCCC.[Cl-]` [Example 1], for which the “Log10 Reduction Anaerobes” value with Desulfovibrio vulgaris (TDS 10,000 mg l-1, contact time 30 minutes) came to 6. In the experiment with Enterobacter aerogenes (TDS 10,000 mg l-1, contact time 30 minutes, listed as 1 (comparative)), the “Log10 Reduction Facultative Anaerobes” value came out at 6.

`CCCCCCCCCCCCCC[P+](CCCC)(CCCC)CCCC.[Cl-]` [Example 2]: in the experiment with Enterobacter aerogenes (TDS 10,000 mg l-1, contact time 30 minutes, listed as 2 (comparative)), the “Log10 Reduction Facultative Anaerobes” value came out at 8.

On to `CCCCCCCCCCCCCC[P+](CCCC)(CCCC)CCCC.[Cl-]` [Example 3], for which the “Log10 Reduction Anaerobes” value with Desulfovibrio vulgaris (setting [1]) is listed as 3. The “Log10 Reduction Facultative Anaerobes” value with Enterobacter aerogenes (setting [1]) was 0.

Take `CCCCCCCCCCCCCC[P+](CCCC)(CCCC)CCCC.[Cl-]` [Example 4]: the “Log10 Reduction Anaerobes” value in the experiment on Desulfovibrio vulgaris (setting [2]) came out at 6. In addition, the “Log10 Reduction Facultative Anaerobes” value in the experiment on Enterobacter aerogenes (setting [2]) is reported as 5.

With `CCCCCCCCCCCCCC[P+](CCCC)(CCCC)CCCC.[Cl-]` [Example 5], the “Log10 Reduction Anaerobes” value in the experiment on Desulfovibrio vulgaris (setting [3]) worked out at 0. Besides, the “Log10 Reduction Facultative Anaerobes” value in the experiment on Enterobacter aerogenes (setting [3]) was found to be 0.

Regarding `[Na+].[O-]Cl` [Example 6], the “Log10 Reduction Anaerobes” value in the experiment with Desulfovibrio vulgaris (setting [3]) was 3. In the experiment on Enterobacter aerogenes (setting [3]), the “Log10 Reduction Facultative Anaerobes” value is listed as 3.

As for `[Na+].[O-]Cl` [Example 11], the “Log10 Reduction Anaerobes” value in the experiment with Desulfovibrio vulgaris (setting [4]) is recorded as 5. Besides, the “Log10 Reduction Facultative Anaerobes” value in the experiment on Enterobacter aerogenes (setting [4]) is given as 2.

Regarding `OCl` [Sodium hypochlorite, sodium hypochlorite], the “efficacy against the anaerobe Desulfovibrio vulgaris (in words)” value in the experiment with Desulfovibrio vulgaris (setting [5]) is listed as “some efficacy”. Moreover, in the experiment on Enterobacter aerogenes (setting [5]), the “efficacy against the facultative anaerobe Enterobacter aerogenes (in words)” value is given as “some efficacy”.

For the compound `CCCCCCCCCCCCCC[P+](CCCC)(CCCC)CCCC.[Cl-]` [TTPC, tri n-butyl n-tetradecyl phosphonium chloride], the “efficacy against the anaerobe Desulfovibrio vulgaris (in words)” value with Desulfovibrio vulgaris (setting [3]) is recorded as “ineffective”. Further, the “efficacy against the facultative anaerobe Enterobacter aerogenes (in words)” value with Enterobacter aerogenes (setting [3]) is reported as “ineffective”.
